What was measured:
[1] = test system: Tregs (CD4+Foxp3+); test: pAkt (S473) phosphorylation by flow cytometry in activated Tregs; format: cell-based, mouse; conditions: 10 nM, 100 nM and 1 μM, 72 hrs, anti-CD3/anti-CD28/IL-2 activated
Protocol: (§1) Negative selection of CD4 T-cells from splenocytes was performed using magnetic bead separation technique according to the manufacturer's recommendations R&D Systems (Minneapolis, Minn.). Tregs (CD4+Foxp3+) and Tconvs (CD4+Foxp3-) were sorted from enriched CD4 cells using FACS ARIA II cell sorter (BD Biosciences).
(§2) Sorted Tregs and Tconvs were labeled with VCT according to the manufacturer's protocol (Life Technologies, NY). Cells stimulated with and without inhibitors in the presence of 10 μg/mL plate-bound anti-CD3, 2.5 μg/mL soluble anti-CD28, and 100 IU/mL IL-2. After 3 days, cells were stained with live/dead cell stain (Life Technologies, NY), fixed, permeabelized and stained with anti-CD4-FITC and anti-Foxp3-AlexaFluor 647. For pAkt (S473) and pS6 analysis, the signal was amplified by using a biotin-conjugated donkey anti-rabbit antibody (BD Biosciences) and Streptavidin-PE. After staining, cells were acquired on LSRII SORP flow cytometer and analyzed using FlowJo software (Tree Star).
(§3) The phosphorylation status of Akt (S473) in activated Tregs and Tconvs was measured by flow cytometry after treatment with titrated concentrations of the individual inhibitors. The concentrations choice was based on previously published IC50 of the inhibitors (Table 1) and the in-vitro viability of T-cells. Concentrations that maintain more than 70% viability of the T-cells were used.

[2] = test system: Tconvs (CD4+Foxp3-); test: pAkt (S473) phosphorylation by flow cytometry in activated Tconvs; format: cell-based, mouse; conditions: 10 nM, 100 nM and 1 μM, 72 hrs, anti-CD3/anti-CD28/IL-2 activated
Protocol: as §1, §2, §3

[3] = test system: Tregs (CD4+Foxp3+); test: Violet Cell Trace proliferation assay, Tregs; format: cell-based, mouse; conditions: all tested concentrations, 3 days, anti-CD3/anti-CD28/IL-2
Protocol: (§4) Sorted Tregs and Tconvs were labeled with VCT according to the manufacturer's protocol (Life Technologies, NY). Cells stimulated with and without inhibitors in the presence of 10 μg/mL plate-bound anti-CD3, 2.5 μg/mL soluble anti-CD28, and 100 IU/mL IL-2. After 3 days, cells were stained with live/dead cell stain (Life Technologies, NY), fixed, permeabelized and stained with anti-CD4-FITC and anti-Foxp3-AlexaFluor 647. […] After staining, cells were acquired on LSRII SORP flow cytometer and analyzed using FlowJo software (Tree Star).

[4] = test system: Tconvs (CD4+Foxp3-); test: Violet Cell Trace proliferation assay, Tconvs; format: cell-based, mouse; conditions: all tested concentrations, 3 days, anti-CD3/anti-CD28/IL-2
Protocol: as §4

[5] = molecular target: PI3Kα (Homo sapiens, UniProt P42336); conditions: previously published IC50; cited from earlier work
Sequence of PI3Kα (P42336 whole entry, species assumed): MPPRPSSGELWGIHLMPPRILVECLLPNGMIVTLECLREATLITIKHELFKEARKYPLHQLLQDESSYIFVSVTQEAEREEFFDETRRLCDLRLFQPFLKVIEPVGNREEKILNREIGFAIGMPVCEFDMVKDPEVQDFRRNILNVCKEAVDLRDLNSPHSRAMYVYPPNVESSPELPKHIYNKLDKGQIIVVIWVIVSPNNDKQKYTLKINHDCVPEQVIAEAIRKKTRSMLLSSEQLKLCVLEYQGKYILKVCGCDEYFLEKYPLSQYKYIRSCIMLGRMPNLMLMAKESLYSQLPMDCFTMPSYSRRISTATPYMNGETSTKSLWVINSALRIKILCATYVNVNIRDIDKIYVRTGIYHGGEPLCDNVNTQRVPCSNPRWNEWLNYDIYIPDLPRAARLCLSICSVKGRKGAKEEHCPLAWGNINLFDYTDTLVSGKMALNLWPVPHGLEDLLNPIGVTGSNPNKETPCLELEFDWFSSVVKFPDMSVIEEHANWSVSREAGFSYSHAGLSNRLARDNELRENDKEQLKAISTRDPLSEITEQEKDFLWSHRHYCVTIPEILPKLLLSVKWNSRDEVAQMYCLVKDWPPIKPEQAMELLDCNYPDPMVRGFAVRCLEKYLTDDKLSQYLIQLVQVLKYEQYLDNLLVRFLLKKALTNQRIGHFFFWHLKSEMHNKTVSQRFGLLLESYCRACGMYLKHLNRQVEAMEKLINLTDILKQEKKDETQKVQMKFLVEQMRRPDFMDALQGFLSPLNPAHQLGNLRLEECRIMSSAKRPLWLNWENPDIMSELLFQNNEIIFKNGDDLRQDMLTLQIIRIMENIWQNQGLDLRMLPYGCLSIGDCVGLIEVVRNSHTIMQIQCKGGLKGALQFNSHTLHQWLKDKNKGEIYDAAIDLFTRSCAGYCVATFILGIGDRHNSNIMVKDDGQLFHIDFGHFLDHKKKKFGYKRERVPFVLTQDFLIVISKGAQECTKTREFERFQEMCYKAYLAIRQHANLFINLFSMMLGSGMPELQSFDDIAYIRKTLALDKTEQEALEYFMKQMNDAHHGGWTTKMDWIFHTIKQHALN

[6] = molecular target: PI3Kδ (Homo sapiens, UniProt O00329); conditions: previously published IC50; cited from earlier work
Sequence of PI3Kδ (O00329 whole entry): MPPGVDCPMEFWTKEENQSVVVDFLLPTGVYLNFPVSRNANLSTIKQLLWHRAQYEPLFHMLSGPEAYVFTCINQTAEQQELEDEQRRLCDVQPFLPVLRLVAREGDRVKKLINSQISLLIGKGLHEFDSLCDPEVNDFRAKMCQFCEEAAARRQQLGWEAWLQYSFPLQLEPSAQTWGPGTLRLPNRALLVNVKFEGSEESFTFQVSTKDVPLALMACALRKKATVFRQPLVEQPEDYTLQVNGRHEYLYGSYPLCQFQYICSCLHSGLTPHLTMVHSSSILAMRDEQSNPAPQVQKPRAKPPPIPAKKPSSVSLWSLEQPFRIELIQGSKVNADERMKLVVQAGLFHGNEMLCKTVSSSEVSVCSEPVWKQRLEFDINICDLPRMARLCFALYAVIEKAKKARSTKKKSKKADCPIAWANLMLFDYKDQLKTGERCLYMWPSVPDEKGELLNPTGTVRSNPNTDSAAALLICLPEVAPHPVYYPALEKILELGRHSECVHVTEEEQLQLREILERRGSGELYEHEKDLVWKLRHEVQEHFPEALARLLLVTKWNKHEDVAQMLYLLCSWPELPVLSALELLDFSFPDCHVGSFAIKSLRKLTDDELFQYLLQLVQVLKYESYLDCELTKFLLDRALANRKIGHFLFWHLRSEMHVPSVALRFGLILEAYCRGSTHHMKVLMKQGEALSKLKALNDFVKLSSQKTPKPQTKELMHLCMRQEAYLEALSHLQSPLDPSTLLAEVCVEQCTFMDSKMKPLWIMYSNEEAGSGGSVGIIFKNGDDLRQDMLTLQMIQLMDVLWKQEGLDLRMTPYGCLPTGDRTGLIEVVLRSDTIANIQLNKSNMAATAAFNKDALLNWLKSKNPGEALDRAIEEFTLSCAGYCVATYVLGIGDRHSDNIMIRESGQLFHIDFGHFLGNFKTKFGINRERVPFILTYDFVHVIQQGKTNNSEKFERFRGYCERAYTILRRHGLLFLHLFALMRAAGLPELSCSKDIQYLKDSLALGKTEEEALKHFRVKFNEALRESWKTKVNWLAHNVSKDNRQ
Sequence of PI3Kδ (P27986 whole entry partner): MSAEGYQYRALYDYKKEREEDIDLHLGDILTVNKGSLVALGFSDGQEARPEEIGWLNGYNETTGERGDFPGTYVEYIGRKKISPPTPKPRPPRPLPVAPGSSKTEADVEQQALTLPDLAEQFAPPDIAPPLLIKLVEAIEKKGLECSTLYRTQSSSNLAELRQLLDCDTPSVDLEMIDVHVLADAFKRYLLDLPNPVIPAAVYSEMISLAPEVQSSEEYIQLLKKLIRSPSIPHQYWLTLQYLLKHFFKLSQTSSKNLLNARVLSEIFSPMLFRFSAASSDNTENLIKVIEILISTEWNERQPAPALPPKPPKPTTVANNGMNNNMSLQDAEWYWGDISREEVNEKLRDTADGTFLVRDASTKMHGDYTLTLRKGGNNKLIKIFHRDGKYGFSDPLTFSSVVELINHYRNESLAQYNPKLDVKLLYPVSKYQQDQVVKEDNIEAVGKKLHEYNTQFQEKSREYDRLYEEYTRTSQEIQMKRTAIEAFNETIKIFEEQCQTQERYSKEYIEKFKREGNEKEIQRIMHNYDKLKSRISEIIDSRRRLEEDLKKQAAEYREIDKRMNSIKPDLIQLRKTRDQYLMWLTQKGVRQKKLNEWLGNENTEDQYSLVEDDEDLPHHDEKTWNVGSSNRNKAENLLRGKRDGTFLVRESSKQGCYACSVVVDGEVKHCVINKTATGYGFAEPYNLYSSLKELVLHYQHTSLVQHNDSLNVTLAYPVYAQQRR

[7] = molecular target: PI3Kγ (Homo sapiens, UniProt P48736); conditions: previously published IC50; cited from earlier work
Sequence of PI3Kγ (P48736 whole entry, species assumed): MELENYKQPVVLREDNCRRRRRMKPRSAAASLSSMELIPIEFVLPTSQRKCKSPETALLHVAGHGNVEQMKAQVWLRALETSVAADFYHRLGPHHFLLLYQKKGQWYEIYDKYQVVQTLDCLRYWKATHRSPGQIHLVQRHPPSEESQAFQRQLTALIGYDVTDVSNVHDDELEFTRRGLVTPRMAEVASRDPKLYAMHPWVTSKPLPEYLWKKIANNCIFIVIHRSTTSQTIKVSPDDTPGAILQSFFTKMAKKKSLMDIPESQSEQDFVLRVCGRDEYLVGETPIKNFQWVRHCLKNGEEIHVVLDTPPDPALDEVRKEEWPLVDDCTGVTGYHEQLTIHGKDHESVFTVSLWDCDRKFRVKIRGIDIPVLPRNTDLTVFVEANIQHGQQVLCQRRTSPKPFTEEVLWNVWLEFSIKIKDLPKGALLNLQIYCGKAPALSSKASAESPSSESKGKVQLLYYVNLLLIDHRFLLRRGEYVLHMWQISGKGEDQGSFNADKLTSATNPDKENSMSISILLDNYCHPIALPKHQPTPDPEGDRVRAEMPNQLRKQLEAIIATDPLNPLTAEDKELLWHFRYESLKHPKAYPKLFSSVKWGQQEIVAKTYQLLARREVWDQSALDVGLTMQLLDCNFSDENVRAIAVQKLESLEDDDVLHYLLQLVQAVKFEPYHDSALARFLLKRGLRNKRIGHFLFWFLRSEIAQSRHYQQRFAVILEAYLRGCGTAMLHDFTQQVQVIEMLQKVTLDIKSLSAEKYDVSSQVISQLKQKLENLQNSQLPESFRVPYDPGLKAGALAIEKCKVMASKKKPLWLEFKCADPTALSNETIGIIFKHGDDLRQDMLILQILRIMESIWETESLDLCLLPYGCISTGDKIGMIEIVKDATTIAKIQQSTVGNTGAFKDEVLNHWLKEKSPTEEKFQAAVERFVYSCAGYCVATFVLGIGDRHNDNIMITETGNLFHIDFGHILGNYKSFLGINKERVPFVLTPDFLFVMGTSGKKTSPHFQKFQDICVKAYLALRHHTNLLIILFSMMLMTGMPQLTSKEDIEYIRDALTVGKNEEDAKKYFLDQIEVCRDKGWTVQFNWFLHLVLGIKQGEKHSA

[8] = test system: Tregs (CD4+Foxp3+); test: Continuous inhibition of PI3Kδ in vivo: Tregs, CD4 and CD8 cells, incl. tumor infiltration

## Cc1nc(NC(=O)N2CCC[C@H]2C(N)=O)sc1-c1csc(C(C)(C)C)n1 [A66]
[1]
  inhibition of pAkt (S473) in Tregs: No remarkable inhibition
[2]
  inhibition of pAkt (S473) in Tconvs: No remarkable inhibition

## Cc1cc(C(C)Nc2ccccc2)c2nc(N3CCOCC3)cc(=O)n2c1 (stereo not drawn) [TGX-221]
[1]
  inhibition of pAkt (S473) in Tregs: No remarkable inhibition
[2]
  inhibition of pAkt (S473) in Tconvs: No remarkable inhibition
[3]
  inhibition of proliferation of Tregs: no inhibition
[4]
  inhibition of proliferation of Tconvs: no inhibition
[5]
  IC50: 5 µM
[6]
  IC50: 0.1 µM
[7]
  IC50: > 10 µM

## CC[C@H](Nc1ncnc2[nH]cnc12)c1nc2cccc(F)c2c(=O)n1-c1ccccc1 [CAL-101]
[2]
  inhibition of pAkt (S473) in Tconvs: no effect
[8]; 10 mg/kg, continuous treatment
  CD4 and CD8 cells in tumor (per 10^6 of CD45+CD3+): no effect
[8]; day 26 vs day 12 baseline and vehicle
  CD4 and CD8 cells under continuous treatment: no effect

— patent US20210196817A1, “Compositions and Methods for Selectively Modulating Tregs” (Augusta University Research Institute, Inc., priority 2014, published 2021)
